Assay: Release of Paclitaxel from silicone elastomer coatings into calf serum
Assay type: physicochemical
Conditions: for steady state release rate of Paclitaxel: calf serum, 37° C.
Experimental: All samples were dip-coated pieces of 316 L stainless steel, measuring 1 cm×1 cm with 26 gauge thickness. The stainless steel pieces were first cleaned by sonicating in 3% Isopanasol, deionised (DI) water, and acetone, each for 6 minutes, then dipped into the silicone composite solutions of the invention. Silicone elastomer solutions were made with DAP® 100% silicone rubber adhesive (from DAP, Inc., Maryland) co-dissolved with either Paclitaxel or Tranilast and 20% (w/w) of polyethylene glycol, MW 3400 (PEG) in methylene chloride. Upon setting, the silicone elastomer solutions formed a film on the steel pieces having a certain thickness. Paclitaxel was loaded at 2% of silicone weight. Tranilast was loaded at 5% of silicone weight. […] All samples were placed in glass culture tubes with 2 mL of either PBS, pH 7.4 or calf serum. The culture tubes were then placed in a shaking water bath at 37° C. and 120 rpm. At each time interval, all of the release media was removed and replaced by fresh solution. Paclitaxel samples were assayed using a competitive inhibition enzyme immunoassay (CIEIA) kit from Hawaii Biotech, Aiea, Hi. Tranilast samples were assayed using UV spectrophotometry at a wavelength of 340 nm.

duration of almost zero-order release after the initial burst (both films, with and without PEG): 60 days | steady state release rate of Paclitaxel (films with 20% weight PEG MW 3400): 0.38 ± 0.03 µg/day | initial burst of Paclitaxel (films without PEG compared with films with 20% PEG): higher initial burst | steady state release rate of Paclitaxel (films without PEG): 0.21 ± 0.03 µg/day | duration of continued but decreased release (silicone elastomer coatings): ≤ 140 days
Structure (SMILES): CC(=O)O[C@H]1C(=O)[C@@]2(C)[C@H]([C@H](OC(=O)c3ccccc3)[C@]3(O)C[C@H](OC(=O)[C@H](O)[C@@H](NC(=O)c4ccccc4)c4ccccc4)C(C)=C1C3(C)C)[C@]1(OC(C)=O)CO[C@@H]1C[C@@H]2O [Paclitaxel]
